# From paper PMC12655637, “Design, Synthesis, and Mechanistic Study of Novel Ciprofloxacin/Thiazole Chalcone Hybrids as Potential Anticancer Agents” (Pharmaceuticals, 2025)
# Key:
# Assay in all cases: NCI-60 screening, one-dose (10 µM) and five-dose, SRB
# [1] = tested on: DU-145; format: cell-based, human; settings: five-dose, DU-145
# [2] = tested on: SK-MEL-5; format: cell-based, human
# [3] = tested on: M14; format: cell-based, human
# [4] = tested on: NCI-H23; format: cell-based, human
# [5] = tested on: SW-620; format: cell-based, human
# [6] = tested on: OVCAR-3; format: cell-based
# [7] = tested on: KM12; format: cell-based, human; settings: five-dose, KM12
# [8] = tested on: T-47D; format: cell-based, human; settings: five-dose
# [9] = tested on: HL-60(TB); format: cell-based, human
# [10] = tested on: A498; format: cell-based; settings: five-dose, A498
# [11] = tested on: SR; format: cell-based, human; settings: five-dose
# [12] = tested on: ACHN; format: cell-based, human
# [13] = tested on: EKVX; format: cell-based, human
# [14] = tested on: MDA-MB231/ATCC; format: cell-based
# [15] = tested on: OVCAR-5; format: cell-based, human; settings: five-dose, OVCAR-5
# [16] = tested on: SK-OV-3; format: cell-based, human
# [17] = Homo sapiens, read-out: LC50 (the source's name)
# [18] = Homo sapiens, five-dose, SK-MEL-5
# [19] = Homo sapiens, five-dose, NCI-H23
# [20] = Homo sapiens, five-dose, SW-620
# [21] = Homo sapiens, five-dose, OVCAR-3
# [22] = Homo sapiens, five-dose, read-out: LC50 (the source's name)
# [23] = Homo sapiens, five-dose, SK-OV-3
compound,measurement,setting,value
"Cc1nc(SCC(=O)N2CCN(c3cc4c(cc3F)c(=O)c(C(=O)O)cn4C3CC3)CC2)sc1C(=O)/C=C/c1cccc(F)c1 [Compound 4d, (E)-1-Cyclopropyl-6-fluoro-7-(4-(2-((5-(3-(3-fluorophenyl)acryloyl)-4-methylthiazol-2-yl)thio)acetyl)piperazin-1-yl)-4-oxo-1,4-dihydroquinoline-3-carboxylic Acid]",GI50,[1]; Homo sapiens,> 100 µM
same,IC50,[1]; Homo sapiens,> 100 µM
same,CC50,[1]; [17],> 100 µM
same,TGI,[1],100.0 µM
same,activity at 10 µM,"[2]; Homo sapiens, 10 μM, SK-MEL-5, Melanoma, read-out: Growth percentage",45.1%
same,GI50,[2]; [18],42.7 µM
same,IC50,[2]; [18],> 100 µM
same,CC50,"[2]; Homo sapiens, five-dose, SK-MEL-5, read-out: LC50 (the source's name)",> 100 µM
same,TGI,"[2]; five-dose, SK-MEL-5",100.0 µM
same,activity at 10 µM,"[3]; Homo sapiens, 10 μM, M14, Melanoma, read-out: Growth percentage",-15.3%
same,GI50,"[3]; Homo sapiens, five-dose, M14",12 µM
same,IC50,"[3]; Homo sapiens, five-dose, M14",> 100 µM
same,CC50,"[3]; Homo sapiens, five-dose, M14, read-out: LC50 (the source's name)",> 100 µM
same,TGI,"[3]; five-dose, M14",100.0 µM
same,activity at 10 µM,"[4]; Homo sapiens, 10 μM, NCI-H23, Non-Small-Cell Lung Cancer, read-out: Growth percentage",45.6%
same,GI50,[4]; [19],> 100 µM
same,IC50,[4]; [19],> 100 µM
same,LC50 (50% lethal concentration),[4]; [19],> 100 µM
same,TGI,"[4]; five-dose, NCI-H23",100.0 µM
same,activity at 10 µM,"[5]; Homo sapiens, 10 μM, SW-620, Colon Cancer, read-out: Growth percentage",3.2%
same,GI50,[5]; [20],3.7 µM
same,IC50,[5]; [20],4.7 µM
same,CC50,"[5]; Homo sapiens, five-dose, SW-620, read-out: LC50 (the source's name)",> 100 µM
same,TGI,"[5]; five-dose, SW-620",100.0 µM
same,activity at 10 µM,"[6]; Homo sapiens, 10 μM, OVCAR-3, Ovarian Cancer, read-out: Growth percentage",-10.9%
same,GI50,[6]; [21],13.5 µM
same,IC50,[6]; [21],> 100 µM
same,CC50,"[6]; Homo sapiens, five-dose, OVCAR-3, read-out: LC50 (the source's name)",> 100 µM
same,TGI,"[6]; five-dose, OVCAR-3",100.0 µM
same,GI50,[7]; Homo sapiens,0.52 µM
same,IC50,[7]; Homo sapiens,0.69 µM
same,LC50,[7]; Homo sapiens,6.92 µM
same,TGI,[7],97.7 µM
same,GI50,"[8]; Homo sapiens, T47D",> 100 µM
same,IC50,"[8]; Homo sapiens, T47D",> 100 µM
same,CC50,"[8]; Homo sapiens, T47D, read-out: LC50 (the source's name)",> 100 µM
same,TGI,[8],77.6 µM
same,activity at 10 µM,"[9]; Homo sapiens, HL-60, 10 μM, HL-60(TB), Leukemia, read-out: Growth percentage",-99.8%
same,IC50,"[9]; Homo sapiens, HL-60, five-dose, HL-60(TB)",2.9 µM
same,IC50,"[9]; Homo sapiens, HL-60, leukemia HL-60",3.7 µM
same,GI50,"[9]; Homo sapiens, five-dose, HL-60(TB)",1.78 µM
same,CC50,"[9]; Homo sapiens, five-dose, HL-60(TB), read-out: LC50 (the source's name)",11 µM
same,TGI,"[9]; five-dose, HL-60(TB)",3.8 µM
same,GI50,[10]; Homo sapiens,> 100 µM
same,IC50,[10]; Homo sapiens,> 100 µM
same,CC50,[10]; [17],> 100 µM
same,TGI,[10],100.0 µM
same,GI50,[11]; Homo sapiens,1.4 µM
same,IC50,[11]; Homo sapiens,2.3 µM
same,CC50,[11]; [17],5.3 µM
same,TGI,[11],100.0 µM
same,activity at 10 µM,"[12]; Homo sapiens, 10 μM, Renal Cancer, read-out: Growth percentage",94.4%
same,GI50,"[12]; Homo sapiens, five-dose",> 100 µM
same,IC50,"[12]; Homo sapiens, five-dose",> 100 µM
same,CC50,[12]; [22],> 100 µM
same,TGI,[12]; five-dose,100.0 µM
same,activity at 10 µM,"[13]; Homo sapiens, 10 μM, Non-Small-Cell Lung Cancer, read-out: Growth percentage",70.2%
same,GI50,"[13]; Homo sapiens, five-dose",1.7 µM
same,IC50,"[13]; Homo sapiens, five-dose",5.9 µM
same,CC50,[13]; [22],> 100 µM
same,TGI,[13]; five-dose,100.0 µM
same,GI50,"[14]; Homo sapiens, MDA-MB-231",> 100 µM
same,IC50,"[14]; Homo sapiens, MDA-MB-231",> 100 µM
same,CC50,"[14]; Homo sapiens, five-dose, MDA-MB-231/ATCC, read-out: LC50 (the source's name)",> 100 µM
same,TGI,"[14]; five-dose, MDA-MB-231/ATCC",100.0 µM
same,GI50,[15]; Homo sapiens,> 100 µM
same,IC50,[15]; Homo sapiens,> 100 µM
same,CC50,[15]; [17],> 100 µM
same,TGI,[15],100.0 µM
same,activity at 10 µM,"[16]; Homo sapiens, 10 μM, SK-OV-3, Ovarian Cancer, read-out: Growth percentage",5%
same,GI50,[16]; [23],> 100 µM
same,IC50,[16]; [23],> 100 µM
same,CC50,"[16]; Homo sapiens, five-dose, SK-OV-3, read-out: LC50 (the source's name)",> 100 µM
same,TGI,"[16]; five-dose, SK-OV-3",100.0 µM
